Key:
Assay in all cases: relative viability (nuclei count vs DMSO), 5 days (fraction); higher = more cells survive
[1] = compound: COc1cc2nc(N3CCCN(C)CC3)nc(NC3CCN(Cc4ccccc4)CC3)c2cc1OC + N=C(N)NC(=N)NCCc1ccccc1 [Phenformin] (partner 250 µM)
Outline: (§1)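 Nuclei were stained with Hoechst during a one-step fixation (final 0.05% Triton X-100, 1% formaldehyde, 1 ug/ml Hoechst) carried out 5 days after dosing, then counted on 4× images. The cells, lung cancer lines in 1536-well plates, had been dosed by pin tool the day after seeding with one drug alone or a fixed anchor-drug dose plus five library-drug doses (not always all listed) in √10 steps. Relative viability is the nuclei count in treated wells divided by that in vehicle wells, and each value is the median of duplicate plates.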

AZD6482 + Navitoclax = compound: Cc1cc([C@@H](C)Nc2ccccc2C(=O)O)c2nc(N3CCOCC3)cc(=O)n2c1 [AZD6482] + CC1(C)CCC(c2ccc(Cl)cc2)=C(CN2CCN(c3ccc(C(=O)NS(=O)(=O)c4ccc(N[C@H](CCN5CCOCC5)CSc5ccccc5)c(S(=O)(=O)C(F)(F)F)c4)cc3)CC2)C1 [Navitoclax] (partner 0.5 µM)
Outline: as §1

[2] = compound: COc1cc2nc(N3CCCN(C)CC3)nc(NC3CCN(Cc4ccccc4)CC3)c2cc1OC + CC(=O)Nc1cccc(-n2c(=O)n(C3CC3)c(=O)c3c(Nc4ccc(I)cc4F)n(C)c(=O)c(C)c32)c1 [Trametinib] (partner 0.02 µM)
Outline: as §1

[3] = compound: COc1cc2nc(N3CCCN(C)CC3)nc(NC3CCN(Cc4ccccc4)CC3)c2cc1OC + Nc1ncn([C@H]2C[C@H](O)[C@@H](CO)O2)c(=O)n1 [Decitabine] (partner 2 µM)
Outline: as §1

For NCI-H322M, the relative viability ([1]; first compound 0.2 µM) was 0.669, the relative viability ([1]; first compound 0.6325 µM) was 0.743 and the relative viability ([1]; first compound 2 µM) was 0.748. The relative viability ([1]; first compound 6.325 µM) was 0.762, the relative viability (AZD6482 + Navitoclax; first compound 0.08 µM) was 1.24 and the relative viability (AZD6482 + Navitoclax; first compound 0.253 µM) was 1. The relative viability (AZD6482 + Navitoclax; first compound 0.8 µM) was 1.07, the relative viability (AZD6482 + Navitoclax; first compound 2.53 µM) was 0.675 and the relative viability (AZD6482 + Navitoclax; first compound 8 µM) was 0.798. For the same cell line, the relative viability ([2]; first compound 0.2 µM) was 0.503, the relative viability ([2]; first compound 0.6325 µM) was 0.495 and the relative viability ([2]; first compound 2 µM) was 0.531. It also gave a relative viability ([2]; first compound 6.325 µM) of 0.512, a relative viability ([3]; first compound 0.2 µM) of 0.717 and a relative viability ([3]; first compound 0.6325 µM) of 0.708. For the same cell line, the relative viability ([3]; first compound 2 µM) was 0.768 and the relative viability ([3]; first compound 6.325 µM) was 0.708.
NCI-H838 gave a relative viability ([1]; first compound 0.2 µM) of 0.769, a relative viability ([1]; first compound 0.6325 µM) of 0.776 and a relative viability ([1]; first compound 2 µM) of 0.576. For the same cell line, the relative viability ([1]; first compound 6.325 µM) was 0.502, the relative viability (AZD6482 + Navitoclax; first compound 0.08 µM) was 0.984 and the relative viability (AZD6482 + Navitoclax; first compound 0.253 µM) was 1.08. It also gave a relative viability (AZD6482 + Navitoclax; first compound 0.8 µM) of 1.05, a relative viability (AZD6482 + Navitoclax; first compound 2.53 µM) of 0.622 and a relative viability (AZD6482 + Navitoclax; first compound 8 µM) of 0.623. For the same cell line, the relative viability ([2]; first compound 0.2 µM) was 0.536, the relative viability ([2]; first compound 0.6325 µM) was 0.556 and the relative viability ([2]; first compound 2 µM) was 0.532. The relative viability ([2]; first compound 6.325 µM) was 0.391, the relative viability ([3]; first compound 0.2 µM) was 0.45 and the relative viability ([3]; first compound 0.6325 µM) was 0.466. The relative viability ([3]; first compound 2 µM) was 0.508 and the relative viability ([3]; first compound 6.325 µM) was 0.474.
Work on NCI-H1648 yielded a relative viability ([2]; first compound 0.6325 µM) of 0.511, a relative viability ([2]; first compound 6.325 µM) of 0.532 and a relative viability ([3]; first compound 0.6325 µM) of 0.472. For the same cell line, the relative viability ([3]; first compound 6.325 µM) was 0.507.
NCI-H650 was tested, and the relative viability ([1]; first compound 0.2 µM) was 0.454, the relative viability ([1]; first compound 0.6325 µM) was 0.459 and the relative viability ([1]; first compound 2 µM) was 0.466. For the same cell line, the relative viability ([1]; first compound 6.325 µM) was 0.427, the relative viability ([2]; first compound 0.2 µM) was 1.01 and the relative viability ([2]; first compound 0.6325 µM) was 1.06. The relative viability ([2]; first compound 2 µM) was 1, the relative viability ([2]; first compound 6.325 µM) was 0.978 and the relative viability ([3]; first compound 0.2 µM) was 0.323. The relative viability ([3]; first compound 0.6325 µM) was 0.307, the relative viability ([3]; first compound 2 µM) was 0.392 and the relative viability ([3]; first compound 6.325 µM) was 0.279.
Work on A549 yielded a relative viability ([1]; first compound 0.2 µM) of 0.185, a relative viability ([1]; first compound 0.6325 µM) of 0.165 and a relative viability ([1]; first compound 2 µM) of 0.195. It also gave a relative viability ([1]; first compound 6.325 µM) of 0.146, a relative viability (AZD6482 + Navitoclax; first compound 0.08 µM) of 1.07 and a relative viability (AZD6482 + Navitoclax; first compound 0.253 µM) of 1.25. The relative viability (AZD6482 + Navitoclax; first compound 0.8 µM) was 1.06, the relative viability (AZD6482 + Navitoclax; first compound 2.53 µM) was 0.607 and the relative viability (AZD6482 + Navitoclax; first compound 8 µM) was 0.961. For the same cell line, the relative viability ([3]; first compound 0.2 µM) was 0.227, the relative viability ([3]; first compound 0.6325 µM) was 0.238 and the relative viability ([3]; first compound 2 µM) was 0.263.
Cell Line NCI-H358 has a relative viability ([1]; first compound 0.2 µM) of 0.318, a relative viability ([1]; first compound 0.6325 µM) of 0.522 and a relative viability ([1]; first compound 2 µM) of 0.296. For the same cell line, the relative viability ([1]; first compound 6.325 µM) was 0.305, the relative viability ([2]; first compound 0.2 µM) was 0.132 and the relative viability ([2]; first compound 0.6325 µM) was 0.16. The relative viability ([2]; first compound 2 µM) was 0.121, the relative viability ([2]; first compound 6.325 µM) was 0.126 and the relative viability ([3]; first compound 0.2 µM) was 0.203. The relative viability ([3]; first compound 0.6325 µM) was 0.2, the relative viability ([3]; first compound 2 µM) was 0.2 and the relative viability ([3]; first compound 6.325 µM) was 0.158.
For NCI-H1563, the relative viability ([1]; first compound 0.2 µM) was 0.638, the relative viability ([1]; first compound 0.6325 µM) was 0.75 and the relative viability ([1]; first compound 2 µM) was 0.68. It also gave a relative viability ([1]; first compound 6.325 µM) of 0.666.
For NCI-H522, the relative viability ([1]; first compound 0.2 µM) was 0.649, the relative viability ([1]; first compound 0.6325 µM) was 0.68 and the relative viability ([1]; first compound 2 µM) was 0.613. It also gave a relative viability ([1]; first compound 6.325 µM) of 0.745, a relative viability ([2]; first compound 0.2 µM) of 0.754 and a relative viability ([2]; first compound 0.6325 µM) of 0.728. The relative viability ([2]; first compound 2 µM) was 0.749, the relative viability ([2]; first compound 6.325 µM) was 0.817 and the relative viability ([3]; first compound 0.2 µM) was 0.623. The relative viability ([3]; first compound 0.6325 µM) was 0.694, the relative viability ([3]; first compound 2 µM) was 0.588 and the relative viability ([3]; first compound 6.325 µM) was 0.698.
In the case of IA-LM, the relative viability (AZD6482 + Navitoclax; first compound 0.08 µM) is reported as 0.859, the relative viability (AZD6482 + Navitoclax; first compound 0.253 µM) is reported as 0.979 and the relative viability (AZD6482 + Navitoclax; first compound 0.8 µM) is reported as 0.977. The relative viability (AZD6482 + Navitoclax; first compound 2.53 µM) was 0.618 and the relative viability (AZD6482 + Navitoclax; first compound 8 µM) was 0.744.
In the case of NCI-H1703, the relative viability (AZD6482 + Navitoclax; first compound 0.08 µM) is reported as 0.902, the relative viability (AZD6482 + Navitoclax; first compound 0.253 µM) is reported as 0.865 and the relative viability (AZD6482 + Navitoclax; first compound 0.8 µM) is reported as 0.822. For the same cell line, the relative viability (AZD6482 + Navitoclax; first compound 2.53 µM) was 0.338 and the relative viability (AZD6482 + Navitoclax; first compound 8 µM) was 0.422.
In the case of LCLC-103H, the relative viability ([1]; first compound 0.2 µM) is reported as 0.36, the relative viability ([1]; first compound 0.6325 µM) is reported as 0.344 and the relative viability ([1]; first compound 2 µM) is reported as 0.367. The relative viability ([1]; first compound 6.325 µM) was 0.36, the relative viability ([2]; first compound 0.2 µM) was 0.682 and the relative viability ([2]; first compound 0.6325 µM) was 0.745. It also gave a relative viability ([2]; first compound 2 µM) of 0.743, a relative viability ([2]; first compound 6.325 µM) of 0.671 and a relative viability ([3]; first compound 0.2 µM) of 0.74. It also gave a relative viability ([3]; first compound 0.6325 µM) of 0.794, a relative viability ([3]; first compound 2 µM) of 0.777 and a relative viability ([3]; first compound 6.325 µM) of 0.701.
SW 900 was tested, and the relative viability ([1]; first compound 0.2 µM) was 0.522, the relative viability ([1]; first compound 0.6325 µM) was 0.682 and the relative viability ([1]; first compound 2 µM) was 0.645. The relative viability ([1]; first compound 6.325 µM) was 0.47, the relative viability ([2]; first compound 0.2 µM) was 0.661 and the relative viability ([2]; first compound 0.6325 µM) was 0.753. The relative viability ([2]; first compound 2 µM) was 0.584, the relative viability ([2]; first compound 6.325 µM) was 0.688 and the relative viability ([3]; first compound 0.2 µM) was 0.448. For the same cell line, the relative viability ([3]; first compound 0.6325 µM) was 0.501, the relative viability ([3]; first compound 2 µM) was 0.412 and the relative viability ([3]; first compound 6.325 µM) was 0.373.

— the supplement of paper PMC10307832
